Measurements from US20130071897A1, “METHOD FOR CONTROLLING UNDESIRABLE BYPRODUCTS FORMATION CAUSED BY CONTAMINATING ORGANISMS IN THE PRODUCTION OF ETHANOL FROM SYNGAS” (COSKATA, INC., priority 2011, published 2013).
Values joined by “and” are separate entries in the source; they are usually repeats but may differ in a detail not shown here. Identical values can stand only once.

Test system: butyrogen population
Experiment: 2-L continuous syngas fermenter with butyrogen-contaminated Clostridium autoethanogenum culture
Type: cell-based
Protocol: Additional experiments were conducted to determine the effect of the crotonyl derivatives in continuous fermentations containing butyrogen contamination. Compounds A and D were tested in a 2-L fermenter containing a seed culture from a 10,000 gallon bioreactor used in a large scale fermentation run.
To initiate the 2 liter fermentation a seed culture from the large scale fermenter was introduced into the 2 liter fermenter and grown on yeast extract to an OD greater than 1 at which time a substantial production of butyrogens was observed. The 2 liter fermenter was a Sartorius Biostat B Series fermenter that operated as a continuously stirred tank with a mixing speed of 200 rpm. After 24 hours of initial growth a gas stream having a composition 38% CO, 38% H2, 15% C02 and the balance CH4 was introduced into the fermenter. The fermentation was conducted at a temperature of 37° C., a pH of 5.30±0.05 and contained approximately 2 liters of fermentation media having a composition found in Table 8. Fresh fermentation media was continually added to the 2 liter fermenter at rate sufficient to establish a mean cell retention time of 5.8 days. The fermentation was allowed to progress and different concentrations of the compounds A and D were added to the fermentation as intermittent injections at different times. Each injection was allowed to wash out of the fermenter before next injection. The presence of acetate and butyrate compounds in the fermenter along with the OD of the fermentation media are shown in FIG. 3.
After approximately 500 hours of fermenter operation compound A was added directly into the fermenter to a concentration of 500 ppm when the OD was 1.82 and butyrate concentration was 4.5 g/L. Following introduction of the compound, the OD decreased rapidly by almost 50% in the first 24 hours and the butyrate concentration decreased by 20% in the same time period. Also in the first 24 hours the butanol content increased rapidly by 6-fold to 0.68 g/L, indicating rapid conversion of the butyric acid to butanol. The rate of conversion of the butyric acid and the dilution rate of the media combined to dramatically decrease the butyrate production rate until it was brought down to zero within 80 hours of initially adding compound A. (See FIG. 4) In addition the OD continued to decrease to a low of 0.54 after 80 hours.
After approximately 700 hours of fermenter operation and the washout of the first 500 ppm addition of compound A, another 50 ppm of compound A was added directly into the fermenter. A decrease in OD and butyrate concentration (See FIG. 3) followed the 50 ppm addition and continued for at least for the first 3 days.
After approximately another 8 days and the washout of the 50 ppm addition of compound A, the butyrate concentration increased to 2 g/L. At this time another 100 ppm of compound A was added directly into the fermenter approximately 890 hours into the run. […] After about 24 hours, the butyrate concentration began to decrease again declining almost 50% over the next 4 days. (See FIG. 3)
Fermenter operation was continued under the same operating conditions following the 100 ppm addition of compound A. After allowing 20 days for the complete wash out of compound A, 100 ppm of compound D was added directly into the fermenter approximately 1370 hours into the fermenter run. Upon the addition of compound D there was a sharp rise in the ethanol concentration and acetic acid concentration accompanied by a decrease in the butyrate production.
For 12 days after the first injection of compound D into the fermenter, the fermenter was allowed to wash out compound D. Then 500 ppm of compound D was injected directly into the fermenter after about 1660 hours of fermenter operation. (See FIG. 3) The resulting concentrations of the C2 and C4 alcohols and acids from the time of adding the 500 ppm of compound D are shown in Table 10.

[1] = 500 ppm compound A, 0.0 Hr after addition
[2] = 500 ppm compound A, 24.0 Hr after addition
[3] = 500 ppm compound A, 49.0 Hr after addition
[4] = 500 ppm compound A, 80.0 Hr after addition
[5] = 500 ppm compound A, 121.0 Hr after addition
[6] = 500 ppm compound A, 145.0 Hr after addition
[7] = 500 ppm compound A, first 24 hours
[8] = approximately 140 hours after 500 ppm addition of compound A
[9] = 100 ppm compound D at approximately 1370 hours
[10] = 500 ppm compound D, 0 Hr after addition
[11] = 500 ppm compound D, 30 Hr after addition
[12] = 500 ppm compound D, 49 Hr after addition
[13] = 500 ppm compound D, 73 Hr after addition
[14] = 500 ppm compound D, 123 Hr after addition
[15] = 500 ppm compound D, 145 Hr after addition
[16] = 500 ppm compound D, 168 Hr after addition
[17] = 500 ppm compound D, 193 Hr after addition
[18] = 500 ppm compound D, 217 Hr after addition
[19] = 500 ppm compound D, 240 Hr after addition

Which “Effect on the butyrogen population shortly after addition” value (2-L butyrogenic reactor, 500, 50 and 100 ppm trials) does the source give for `CCOC(=O)C=C(C(F)(F)F)C(F)(F)F` [Compound A, ethyl 4,4,4-trifluoro-3-(trifluoromethyl)crotonate] here?
Its value is “inhibitory and bactericidal effect”.

And the “Concentration of ethanol and acetic acid” value (50 ppm compound A at approximately 700 hours)?
Its value is “continued increase”.

What about the “OD and butyrate concentration” value (50 ppm compound A at approximately 700 hours, at least first 3 days) of the same compound?
Its value is “decrease”.

And the Ethanol concentration (100 ppm compound A at approximately 890 hours)?
Its Ethanol concentration is “began to immediately increase”.

What about the “Decline of butyrate concentration” value (100 ppm compound A at approximately 890 hours, over 4 days, starting about 24 hours after addition) of the same compound?
The value was roughly 50%.

What about the Acetic acid [1] of the same compound?
The Acetic acid was 3.237 g/L.

What about the Butyric acid [1] of the same compound?
Its Butyric acid is 4.5 g/L and 4.503 g/L.

What about the Ethanol [1] of the same compound?
The Ethanol was 0.026 g/L.

What about the “OD @600 nm” value [1] of the same compound?
The value was 1.82.

And the n-Butanol [1]?
Its n-Butanol is 0.109 g/L.

And the Acetic acid [2]?
Its Acetic acid is 2.728 g/L.

What about the Butyric acid [2] of the same compound?
The Butyric acid was 3.600 g/L.

And the Ethanol [2]?
The Ethanol was 0.266 g/L.

What about the “OD @600 nm” value [2] of the same compound?
The value was 1.09.

What about the n-Butanol [2] of the same compound?
The n-Butanol was 0.68 g/L and 0.681 g/L.

What about the Acetic acid [3] of the same compound?
Its Acetic acid is 2.333 g/L.

What about the Butyric acid [3] of the same compound?
The Butyric acid was 3.074 g/L.

And the Ethanol [3]?
The Ethanol was 0.255 g/L.

What about the “OD @600 nm” value [3] of the same compound?
Its value is 0.76.

What about the n-Butanol [3] of the same compound?
The n-Butanol was 0.601 g/L.

What about the Acetic acid [4] of the same compound?
Its Acetic acid is 1.959 g/L.

And the Butyric acid [4]?
Its Butyric acid is 2.542 g/L.

And the Ethanol [4]?
Its Ethanol is 0.212 g/L.

And the “OD @600 nm” value [4]?
Its value is 0.54.

What about the n-Butanol [4] of the same compound?
Its n-Butanol is 0.497 g/L.

What about the Acetic acid [5] of the same compound?
Its Acetic acid is 2.446 g/L.

What about the Butyric acid [5] of the same compound?
The Butyric acid was 1.842 g/L.

And the Ethanol [5]?
The Ethanol was 0.345 g/L.

What about the “OD @600 nm” value [5] of the same compound?
The value was 0.75.

And the n-Butanol [5]?
The n-Butanol was 0.513 g/L.

What about the Acetic acid [6] of the same compound?
Its Acetic acid is 4.082 g/L.

What about the Butyric acid [6] of the same compound?
Its Butyric acid is 1.645 g/L.

What about the Ethanol [6] of the same compound?
The Ethanol was 0.441 g/L.

And the “OD @600 nm” value [6]?
The value was 1.17.

What about the n-Butanol [6] of the same compound?
The n-Butanol was 0.311 g/L.

And the “Decrease of OD” value [7]?
Its value is roughly 50%.

What about the “Decrease of butyrate concentration” value [7] of the same compound?
The value was 20%.

And the “Increase of butanol content” value [7]?
Its value is 6 fold.

What about the “Time until butyrate production rate was brought down to zero” value (500 ppm compound A, from initial addition) of the same compound?
The value was no more than 80 h.

And the Acetic acid production [8]?
The Acetic acid production was “dramatic rise”.

And the Increase in ethanol [8]?
Its Increase in ethanol is “over 100%”.

What about the OD recovery [8] of the same compound?
The OD recovery was “nearly recovered to its original level”.

For `O=C(O)C=C(C(F)(F)F)C(F)(F)F` [D, 4,4,4-trifluoro-3-(trifluoromethyl)crotonic acid], which Butanol concentration [9] is on record?
Its Butanol concentration is “rose temporarily”.

What about the Butyrate Production [9] of the same compound?
Its Butyrate Production is “decrease”.

And the “Ethanol concentration and acetic acid concentration” value [9]?
Its value is “sharp rise”.

What about the “Inhibition of butyrogens versus homoacetogenic organisms” value (500 ppm compound D) of the same compound?
The value was “butyrogens were specifically inhibited whereas the homoacetogenic organisms were not inhibited”.

And the Acetic acid [10]?
Its Acetic acid is 8.72 g/L.

And the Butyric acid [10]?
The Butyric acid was 1.51 g/L.

What about the EtOH [10] of the same compound?
Its EtOH is 0.55 g/L.

And the “OD @600 nm” value [10]?
The value was 1.40.

And the n-Butanol [10]?
The n-Butanol was 0.21 g/L.

And the Acetic acid [11]?
Its Acetic acid is 8.48 g/L.

And the Butyric acid [11]?
Its Butyric acid is 1.47 g/L.

And the EtOH [11]?
Its EtOH is 0.61 g/L.

And the “OD @600 nm” value [11]?
Its value is 1.35.

What about the n-Butanol [11] of the same compound?
Its n-Butanol is 0.23 g/L.

And the Acetic acid [12]?
The Acetic acid was 8.64 g/L.

What about the Butyric acid [12] of the same compound?
The Butyric acid was 1.44 g/L.

And the EtOH [12]?
Its EtOH is 0.69 g/L.

What about the “OD @600 nm” value [12] of the same compound?
The value was 1.23.

What about the n-Butanol [12] of the same compound?
Its n-Butanol is 0.26 g/L.

What about the Acetic acid [13] of the same compound?
The Acetic acid was 8.56 g/L.

What about the Butyric acid [13] of the same compound?
The Butyric acid was 1.37 g/L.

And the EtOH [13]?
The EtOH was 0.68 g/L.

And the “OD @600 nm” value [13]?
The value was 1.12.

And the n-Butanol [13]?
The n-Butanol was 0.26 g/L.

And the Acetic acid [14]?
The Acetic acid was 8.72 g/L.

And the Butyric acid [14]?
The Butyric acid was 1.41 g/L.

What about the EtOH [14] of the same compound?
Its EtOH is 0.53 g/L.

What about the “OD @600 nm” value [14] of the same compound?
The value was 0.92.

And the n-Butanol [14]?
The n-Butanol was 0.19 g/L.

And the Acetic acid [15]?
The Acetic acid was 8.75 g/L.

What about the Butyric acid [15] of the same compound?
Its Butyric acid is 1.36 g/L.

And the EtOH [15]?
The EtOH was 0.88 g/L.

And the “OD @600 nm” value [15]?
The value was 1.12.

And the n-Butanol [15]?
The n-Butanol was 0.26 g/L.

And the Acetic acid [16]?
Its Acetic acid is 8.83 g/L.

And the Butyric acid [16]?
Its Butyric acid is 1.11 g/L.

And the EtOH [16]?
Its EtOH is 0.95 g/L.

And the “OD @600 nm” value [16]?
Its value is 1.38.

What about the n-Butanol [16] of the same compound?
The n-Butanol was 0.28 g/L.

And the Acetic acid [17]?
Its Acetic acid is 8.86 g/L.

And the Butyric acid [17]?
The Butyric acid was 1.12 g/L.

And the EtOH [17]?
The EtOH was 0.87 g/L.

And the “OD @600 nm” value [17]?
Its value is 1.18.

And the n-Butanol [17]?
Its n-Butanol is 0.24 g/L.

What about the Acetic acid [18] of the same compound?
The Acetic acid was 9.05 g/L.

And the Butyric acid [18]?
The Butyric acid was 1.13 g/L.

And the EtOH [18]?
Its EtOH is 0.84 g/L.

And the “OD @600 nm” value [18]?
Its value is 1.24.

And the n-Butanol [18]?
Its n-Butanol is 0.21 g/L.

And the Acetic acid [19]?
Its Acetic acid is 9.21 g/L.

What about the Butyric acid [19] of the same compound?
The Butyric acid was 1.17 g/L.

What about the EtOH [19] of the same compound?
Its EtOH is 0.82 g/L.

And the “OD @600 nm” value [19]?
The value was 1.25.

And the n-Butanol [19]?
Its n-Butanol is 0.21 g/L.
